Laboratory results published in patent US10881677B2, “Composition for modulating IRAK1” (Agency for Science, Technology and Research, priority 2015, dated 2021).
“Also recorded” adds a separate entry of the source.

Tests used:
[1] = test system: SUM159-PR and MDA231-PR cells; experiment: Apoptosis by FACS analysis of Sub-G1 cells; type: cell-based; conditions: for sensitization of Paclitaxel for apoptosis: Paclitaxel-resistant cells (SUM159-PR, MDA231-PR), inhibitor together with Paclitaxel
Description: Cell cycle analysis was done by DNA content quantification to quantify the sub-G1 population which is reflective of the extent of cell death. Briefly, the cells were fixed with 70% ethanol and stained with propidium iodide (50 μg/ml) staining. The stained cells were analyzed by FACScalibur (BD Bioscience) and quantified by using CellQuest software (BD bioscience).

[2] = target: T1, p-IRAK1 (T209) (Homo sapiens, UniProt P51617); experiment: Western blot of p-IRAK1 in immunoprecipitated IRAK1; type: cell-based; conditions: for induction of p-IRAK1 by chemotherapeutic agent: MDA231 (also SUM159) cells, PTX 5 nM, ADR 2 μM, Cisplatin 5 μM, up to 48 hours; for IRAK1 signaling activated by chemotherapeutic agents: discussion statement
T1 construct: The whole cell lysate were extracted with the NE-PER kit (Pierce Biotechnology) and subjected to immunoprecipitation using 2 μg total-IRAK1 antibody; endogenous in cells; host or cells: TNBC cell lines (BT549, MB436, MB468, MDA231, MDA231-LM2, SUM159 and paclitaxel-resistant sublines)
T1 sequence (P51617 whole entry): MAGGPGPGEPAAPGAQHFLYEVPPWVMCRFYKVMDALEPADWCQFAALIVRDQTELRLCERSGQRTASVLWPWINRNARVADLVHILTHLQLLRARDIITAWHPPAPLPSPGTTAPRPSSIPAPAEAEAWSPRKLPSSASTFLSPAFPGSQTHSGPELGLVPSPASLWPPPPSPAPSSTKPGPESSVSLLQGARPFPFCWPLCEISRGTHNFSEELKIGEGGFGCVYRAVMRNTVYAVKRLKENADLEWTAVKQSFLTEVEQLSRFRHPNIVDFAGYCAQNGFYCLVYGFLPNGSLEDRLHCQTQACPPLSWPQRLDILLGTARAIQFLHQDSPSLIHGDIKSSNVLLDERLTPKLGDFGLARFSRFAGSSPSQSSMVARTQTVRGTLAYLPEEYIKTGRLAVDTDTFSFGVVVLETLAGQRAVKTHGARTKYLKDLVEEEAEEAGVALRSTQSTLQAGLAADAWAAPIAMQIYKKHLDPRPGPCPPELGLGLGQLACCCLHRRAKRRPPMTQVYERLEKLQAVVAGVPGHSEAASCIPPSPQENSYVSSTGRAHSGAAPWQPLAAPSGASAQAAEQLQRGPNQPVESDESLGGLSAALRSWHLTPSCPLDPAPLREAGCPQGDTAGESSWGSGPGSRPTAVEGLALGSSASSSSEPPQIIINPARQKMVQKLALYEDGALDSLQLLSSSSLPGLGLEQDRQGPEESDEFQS
Description: (§1) Western Blotting was performed as described previously (8). IRAK1 (Cat no: #4359), IRAK4 (Cat no.: 4363), cleaved PARP (Cat no.: #9541), p38 MAPK (Cat no.: #9212), phospho-p38 MAPK (T180/Y182) (Cat no.: #9211), phospho-NF-KappaB p65 (S536) (Cat no. #3031) were purchased from Cell Signaling (Danvers, Mass.). Phospho-IRAK1 (T209) antibody was purchased from Assay Biotech (Sunnyvale, Calif., Cat no.: A1074) and phospho-IRAK1 (S376) antibody from Genetex (Irvine, Calif., Cat no.: GTX50994). MCL-1 antibody was purchased from Santa Cruz Biotechnology (Santa Cruz, Calif., Cat no.: sc-819). Actin was purchased from Sigma-Aldrich (St Louis, Mo., Cat no.: A5441). Detection of bands was performed with the ChemiDoc™ MP Imaging Systems (Bio-Rad, Hercules, Calif.) and bands were subjected to further densitometric analysis with Image Lab software (Version 4.1, Bio-rad, Hercules, Calif.).
Co-IP was performed as described previously (9). The whole cell lysate were extracted with the NE-PER kit (Pierce Biotechnology) and subjected to immunoprecipitation using 2 μg total-IRAK1 antibody (Santa Cruz Biotech, Santa Cruz, Calif., Cat no.: sc-7883). The precipitated protein complex was captured using protein A-Agarose beads (Roche) and extensively washed with the washing buffer (50 mM Tris-HCl, 150 mM NaCl, 0.1% triton). The precipitated proteins were dissolved in SDS sample buffer along with 3 mM DTT, and subjected to immunoblotting analysis. Phospho-IRAK1 (T209) (Assay Biotechnology, Sunnyvale, Calif., Cat no.: A1074) was used for detection.

[3] = test system: MDA231-PR cells; experiment: Cell viability IC50 curves, sensitivity of paclitaxel-resistant cells to agents; type: cell-based; conditions: for shift of the IC50 curve: MDA231-PR versus parental MDA-MB-231; for sensitivity of paclitaxel-resistant cells to agent: paclitaxel-treated/resistant cells over-expressing p-IRAK1
From the text: (§2) FIG. 17. (a). IC50 curves showing cell viability after treatment with paclitaxel (PTX), vincristine (VCR), gemcitabine, doxorubicin (ADR), cisplatin, 5-fluorouracil (5-FU) and pacritinib in parental and pacitaxel-treated MDA-MB-231 (MDA231-PR) cells. (b). Graphical representation of relative sensitivities. (c).
(§3) For cell proliferation assay, the optimal cell seeding was first determined empirically for all cell lines by examining the growth of a wide range of seeding densities in a 96-well format to identify conditions that permitted proliferation for 7 days. Cells were then plated at the optimal seeding density 24 h before siRNA or drug treatment in triplicate. Plates were incubated for 7 days at 37° C. in 5% CO2. Cells were then lysed with CellTiter-Glo (CTG) (Promega, Madison, Wis.) and chemiluminescent signal was detected with a microplate reader on Day 0, 1, 3, 5 and 7. In addition, an untreated plate of cells was harvested at the time of drug or siRNA addition (T0) to quantify the starting number of cells. CTG values obtained after the 7 day treatment were expressed as percentages of the T0 value and plotted against time of treatment.

[4] = target: IRAK1 (Homo sapiens, UniProt P51617); conditions: cited from earlier work; for ability to inhibit IRAK1: recently reported (ref 38), in vitro and in vivo
Chain of IRAK1 (P51617 whole entry, species assumed): as the sequence (P51617 whole entry) above

[5] = test system: parental MDA-MB-231 cells; experiment: Cell viability IC50 curves, sensitivity of parental cells to agents; type: cell-based; conditions: parental MDA231
From the text: as §2, §3

[6] = test system: MDA231 and SUM159 parental and Paclitaxel-resistant sublines (PR); experiment: Cell viability of parental and Paclitaxel-resistant sublines, combination treatment; type: cell-based; conditions: MDA231-PR cells, in combination with PTX
Description: as §3

[7] = test system: BT549, MB436, MB468, MDA231 and MDA231-LM2 cells; experiment: Mammosphere formation assay; type: cell-based; conditions: Ginsenosides CK and Rb1
Description: Active growing cells were treated with 0.05% trypsin for 10 minutes then passed through […] cell strainer to achieve single cell suspension. Cells were plated (MDA231: 1×10^4; MB436: 3×10^4; MB468: 4×10^4 cells/well, BT549: 3×10^4, MDA231-LM2: 3×10^4) seeded in 6-well ultra-low attachment plates (Corning, Corning, N.Y., cat: CLS3471) in Mammocult medium (Stem cell Technologies, Vancouver, BC, Canada), supplemented with fresh hydrocortisone (0.51 μg/ml) and heparin (1:500). Tumorspheres were cultured for 7 days prior to being counted and photographed. Imaging and quantification were done using GelCount™ apparatus and associated software (Oxford Optronix, Abingdon, UK). For serial passages of tumorsphere formation assay, the spheres were collected by gentle centrifugation, dissociated to single cells for passaging tumorspheres every 14 days and counted. Tumorspheres were photographed and quantified 7-12 days later using a GelCount Colony Counter after staining with INT.

[8] = test system: p38-MCL-1 signaling in SUM159-PR cells; experiment: Western blot of p-p38, MCL-1 and cleaved PARP; type: cell-based; conditions: inhibitor with Paclitaxel
Description: as §1

With O=C(Nc1cc(Cl)cc2c1[nH]c1cnccc12)c1cccnc1 [PS1145] the “sensitization of Paclitaxel for apoptosis” value (shortened to “sensitization of Paclitaxel”) [1] was “failed to sensitize”.

With COc1cccc2c1C(=O)c1c(O)c3c(c(O)c1C2=O)C[C@@](O)(C(=O)CO)C[C@@H]3O[C@H]1C[C@H](N)[C@H](O)[C@H](C)O1 [doxorubicin, Doxorubicin] the “induction of p-IRAK1 by chemotherapeutic agent” value [2] was “not seen”, the “IRAK1 signaling activated by chemotherapeutic agents” value [2] was “activated” and the “shift of the IC50 curve” value [3] was “marked right shift”.

For CC(C)=CCC[C@](C)(O[C@@H]1O[C@H](CO[C@@H]2O[C@H](CO)[C@@H](O)[C@H](O)[C@H]2O)[C@@H](O)[C@H](O)[C@H]1O)[C@H]1CC[C@]2(C)[C@@H]1[C@H](O)C[C@@H]1[C@@]3(C)CC[C@H](O[C@@H]4O[C@H](CO)[C@@H](O)[C@H](O)[C@H]4O[C@@H]4O[C@H](CO)[C@@H](O)[C@H](O)[C@H]4O)C(C)(C)[C@@H]3CC[C@]12C [Rb1, Ginsenoside Rb1], the “ability to inhibit IRAK1” value [4] is given as “ability to inhibit IRAK1”.

For O=c1[nH]cc(F)c(=O)[nH]1 [5-fluorouracil], the “response of parental cells to agent” value [5] was “poor” and the “sensitivity of paclitaxel-resistant cells to agent” value (from here on “sensitivity”) [3] was “poor”.

For CC(C)=CCC[C@](C)(O[C@@H]1O[C@H](CO)[C@@H](O)[C@H](O)[C@H]1O)[C@H]1CC[C@]2(C)[C@@H]1[C@H](O)C[C@@H]1[C@@]3(C)CC[C@H](O)C(C)(C)[C@@H]3CC[C@]12C [CK, Compound K], the “p-IRAK1 in MDA231-LM2 cells” value ([2]; CK 25 μM) was “inhibit p-IRAK1”, the “effect on Paclitaxel resistance (cell viability and apoptosis)” value [6] was “combat Paclitaxel resistance; also recorded: combat chemoresistance” and the MDA231-LM2 mammosphere growth [7] was “abolish; also recorded: inhibit TNBC metastatic growth”. The “ability to inhibit IRAK1” value [4] was “ability to inhibit IRAK1”.

For NS(=O)(=O)c1nn2cc(-c3ccccc3)nc2s1 [JNK inhibitor, AEG 3482], the “sensitization of Paclitaxel” value [1] was “not evident”.

In the case of Nc1ccn([C@@H]2O[C@H](CO)[C@@H](O)C2(F)F)c(=O)n1 [gemcitabine], the “sensitivity” value [3] is reported as “remained sensitive; also recorded: remained susceptible”.

With C[C@@H]1CN(Cc2ccc(F)cc2)[C@@H](C)CN1C(=O)c1cc2c(C(=O)C(=O)N(C)C)cn(C)c2cc1Cl [p38 inhibitor, SCIO 469] the “sensitization of Paclitaxel” value [1] was “able to phenocopy IRAK-inh to sensitize Paclitaxel-induced apoptosis”, the PARP cleavage [8] was “increased PARP cleavage” and the “p-p38 and MCL-1 expression” value [8] was “decrease”.

For Cc1ccc(S(=O)(=O)/C=C/C#N)cc1 [Bay 117082, BAY-11-7082], the “sensitization of Paclitaxel” value [1] was “failed to sensitize”.

For CC[C@]1(O)C[C@H]2CN(CCc3c([nH]c4ccccc34)[C@@](C(=O)OC)(c3cc4c(cc3OC)N(C=O)[C@H]3[C@@](O)(C(=O)OC)[C@H](OC(C)=O)[C@]5(CC)C=CCN6CC[C@]43[C@@H]65)C2)C1 [Vincristine], the “IRAK1 signaling activated by chemotherapeutic agents” value [2] was “activated”, the “shift of the IC50 curve” value [3] was “marked right shift” and the “sensitivity” value [3] was “resistant”.

For C1=C/COCc2cc(ccc2OCCN2CCCC2)Nc2nccc(n2)-c2cccc(c2)COC/1 [pacritinib], the “sensitivity” value [3] is listed as “sensitive; also recorded: remained susceptible”, the “effect of treatment on paclitaxel-resistant MDA-MB-231 cells” value ([1]; compared with IRAK-inh) is listed as “effects similar to those seen with IRAK-inh” and the IRAK1-inhibitory activity ([4]; through communication with CTI BioPharma) is listed as “IRAK1-inhibitory activity”.

In the case of N.N.[Cl][Pt][Cl] [cisplatin], the “induction of p-IRAK1 by chemotherapeutic agent” value [2] is reported as “not seen” and the “sensitivity” value [3] is reported as “remained sensitive; also recorded: remained susceptible”.
